Test results taken from patent US20240261443A1, “COMPOUNDS AND COMPOSITIONS USEFUL AS RADIOTRACERS FOR IMAGING OF REACTIVE OXIDATIVE SPECIES” (Wake Forest University Health Sciences, priority 2019, published 2024).

Key:
normal organs = assay: Toxicity observation in blocking studies, KS1 15 mg/kg; assay type: in vivo; conditions: 15 mg/kg injected
Procedure: Athymic nude mice (Taconic Farms) were housed in a pathogen-free facility of the Animal Research Program at Wake Forest School of Medicine under a 12:12-h light/dark cycle and fed ad libitum. All animal experiments were conducted under IACUC approved protocols in compliance with the guidelines for the care and use of research animals established by Wake Forest Medical School Animal Studies Committee. PC3 cells (1×10^5 cells suspended in 10 μL matrigel) were implanted in the left flank of nude mice (25-30 g) as described previously. […] Samples of tumor, blood, brain, heart, lung, liver, spleen, pancreas, kidney, muscle and bone were harvested, weighed, and gamma counted with a standard dilution of the injectate (Chu et al., Development of a PET Radiotracer for Noninvasive Imaging of the Reactive Oxygen Species, Superoxide, in vivo. Organic & biomolecular chemistry. 2014; 12:4421-31; Sai et al., Radiolabeling and initial biological evaluation of [(18)F]KBM-1 for imaging RAR-α receptors in neuroblastoma. Bioorganic & medicinal chemistry letters. 2017; 27:1425-7; Kumar et al., Radiosynthesis and in Vivo Evaluation of [11C]MPC-6827, the First Brain Penetrant Microtubule PET Ligand. […] The percentage of the injected dose per gram of tissue (% ID/g) was calculated.

[1] = tested on: SCC-61 and PC3 cell lines; assay: DCFDA intracellular ROS detection assay; assay type: cell-based, human
Text: For this, we used dichlorofluorescin diacetate (DCFDA) intracellular ROS detection assay kit and followed manufacture recommended protocol (ZHELEV et al., Docosahexaenoic Acid Sensitizes Leukemia Lymphocytes to Barasertib and Everolimus by ROS-dependent Mechanism Without Affecting the Level of ROS and Viability of Normal Lymphocytes. Anticancer Research 2016, 36 (4), 1673-1682). We studied two patient-derived tumor cell lines: SCC-61, […], and PC3, prostate cancer cell line. The maximum allowed mass for a typical clinical PET radiotracer is <100 μM (Schwarz et al., Radiochemistry and radiopharmacology. LIC-Nuclear Medicine and PET/CT: Technology and Techniques 2016, 11, 77), so we chose 10-100 μM as our concentration range for tracer-level assays. The lowest reported pharmacologic dose for ascorbate is 2.0 mM (Levine et al., Vitamin C: a concentration-function approach yields pharmacology and therapeutic discoveries. Adv Nutr 2011, 2 (2), 78-88), so we chose this dose for our pharmacological assays. We chose the ligand incubation times based on the maximum tracer uptake time (˜2 h) for a typical [^18F]-based PET radiotracer injection (Schlyer, PET tracers and radiochemistry. ANNALS-ACADEMY OF MEDICINE SINGAPORE 2004, 33 (2), 146-154).
Pharmacologic doses of ascorbate generates ROS, including H2O2 and trace amounts of labile iron extracellularly and/or intracellularly (Nauman et al., Systematic Review of Intravenous Ascorbate in Cancer Clinical Trials. Antioxidants (Basel) 2018, 7 (7), 89). We performed the same DCFDA assay with KS1 and ascorbate at pharmacological doses of 2 mM for 7 h in both SCC-61 and PC3 cell lines. ROS production was analyzed and reported (FIG. 11) using the similar measurements as above. Ligand specificity is commonly determined by pretreating the cells with high concentrations of blockers. We used superoxide dismutase (SOD), an enzyme that selectively suppresses accumulation of superoxide peroxide anions (Bielski et al., Chemistry of ascorbic acid radicals. in Ascorbic Acid: Chemistry, Metabolism, and Uses. Chapter 1982, 4, 81-100).

PC3 tumors = assay: Standard biodistribution in PC3 tumor-bearing mice; assay type: in vivo
Procedure: Athymic nude mice (Taconic Farms) were housed in a pathogen-free facility of the Animal Research Program at Wake Forest School of Medicine under a 12:12-h light/dark cycle and fed ad libitum. All animal experiments were conducted under IACUC approved protocols in compliance with the guidelines for the care and use of research animals established by Wake Forest Medical School Animal Studies Committee. PC3 cells (1×10^5 cells suspended in 10 μL matrigel) were implanted in the left flank of nude mice (25-30 g) as described previously. Mice bearing subcutaneous human PCa PC3 tumors were separated into two groups for baseline and blockade studies (n=3/group) and underwent microPET imaging under ˜1% isoflurane-oxygen anesthesia (Reuter et al., Oxidative stress, inflammation, and cancer: How are they linked? Free radical biology & medicine. 2010; 49:1603-16. doi:10.1016/j.freeradbiomed; Sosa et al., Oxidative stress and cancer: An overview. Ageing Research Reviews. 2013; 12:376-90; Singh et al., Silibinin suppresses in vivo growth of human prostate carcinoma PC-3 tumor xenograft. Carcinogenesis. 2007; 28:2567-74). Mice were intravenously injected with ˜100±10 μCi of [^18F]KS1 and 45 min later were scanned for 20 min using a TriFoil microPET scanner. KS1 (15 mg/kg) was used as a blocking agent and was injected 45 min before the radiotracer injection. Standard biodistribution studies were conducted in mice bearing PCa tumors to confirm in vivo binding of [^18F]KS1. Mice were intravenously injected with [^18F]KS1 (˜100 μCi), and euthanized after 30 min and 60 min of tracer injections (3 mice/time point). Samples of tumor, blood, brain, heart, lung, liver, spleen, pancreas, kidney, muscle and bone were harvested, weighed, and gamma counted with a standard dilution of the injectate (Chu et al., Development of a PET Radiotracer for Noninvasive Imaging of the Reactive Oxygen Species, Superoxide, in vivo. Organic & biomolecular chemistry. 2014; 12:4421-31; Sai et al., Radiolabeling and initial biological evaluation of [(18)F]KBM-1 for imaging RAR-α receptors in neuroblastoma. Bioorganic & medicinal chemistry letters. 2017; 27:1425-7; Kumar et al., Radiosynthesis and in Vivo Evaluation of [11C]MPC-6827, the First Brain Penetrant Microtubule PET Ligand. Journal of Medicinal Chemistry. 2018; 61:2118-23). The percentage of the injected dose per gram of tissue (% ID/g) was calculated.

[2] = tested on: SCC-61 and rSCC-61 tumors; assay: microPET/CT imaging in SCC-61 and rSCC-61 tumor-bearing mice; assay type: in vivo
Text: After evaluating the complete in vitro ROS uptake and stability profile of [^18F]KS1, we performed in vivo microPET/CT scans in tumor-bearing mice. To test our hypothesis of selective binding of [^18F]KS1 to image ROS in tumor tissue, we reported the baseline and blocking PET imaging data in a murine model of PCa (Solingapuram Sai et al., Initial biological evaluations of 18F-KS1, a novel ascorbate derivative to image oxidative stress in cancer. EJNMMI Research 2019, 9 (1), 43). Further, to test the differential ROS uptake of [^18F]KS1, microPET/CT imaging experiments were performed in both SCC-61 and rSCC-61 tumor-bearing mice (n=5, 25±2.5 g).

SCC-61 tumors = assay: Post-PET biodistribution, SCC-61 tumor-bearing mice; assay type: in vivo
Procedure: Subsequently, post-PET biodistribution was performed in the same SCC-61 or rSCC-61 tumor-bearing mice injected with [^18F]KS1 (FIG. 16). […] High kidney and liver uptake were common with [^18F]radiotracer's distribution at 30 min post-injection.

| Compound | toxicity in normal organs (normal organs) | ROS generation (DCFDA fluorescence) ([1]; 10 μM and 100 μM, SCC-61 and PC3) | fluorescence intensity (ROS generation) at pharmacological dose ([1]; 2 mM, 7 h, compared to 100 μM) | increased intensity subdued with SOD addition ([1]; 2 mM, SOD blocker) [fold] | increased tumor uptake from 30 min to 60 min (PC3 tumors; 30 to 60 min post injection) [fold] | tumor: muscle (target: non-target) ratio (PC3 tumors; 30 min) | bone uptake (PC3 tumors; 30 min post injection) [% ID/g] | tumor uptake (PC3 tumors; 30 min post injection) [% ID/g] | tumor: muscle (target: non-target) ratio (PC3 tumors; 60 min) | bone uptake (PC3 tumors; 60 min post injection) [% ID/g] | tumor uptake (PC3 tumors; 60 min post injection) [% ID/g] | increase in the tumor: muscle ratio (PC3 tumors; from 30 min to 60 min) [%] | tumor uptake in SCC-61 tumors versus rSCC-61 tumors ([2]; ROI analysis on PET scans) [fold] | residual uptake in other organs, including bladder and kidney ([2]; post 1-h radiotracer injection) | target (tumor) to non-target (muscle) ratio (SCC-61 tumors; SCC-61 tumors, post-PET) | enrichment in SCC-61 tumors over rSCC-61 tumors (SCC-61 tumors; tumor: muscle ratio) [fold] |
| --- | --- | --- | --- | --- | --- | --- | --- | --- | --- | --- | --- | --- | --- | --- | --- | --- |
| O=C1O/C(=C/CCl)C(O)=C1OCc1ccc(OCCF)cc1 [KS1, (E)-5-(2-chloroethylidene)-3-(4-(2-fluoroethoxy)benzyloxy)-4-hydroxyfuran-2(5H)-one] | did not observe any toxicity | did not generate ROS | increased significantly | ~3 |  |  |  |  |  |  |  |  |  |  |  |  |
| O=C1O/C(=C/CCl)C(O)=C1OCc1ccc(OCC[18F])cc1 [[^18F]KS1] |  |  |  |  | ~1.7 | 4.31 | 1.741±0.71 | 4.23±0.531 | 8.84 | 1.381±0.561 | 6.81±0.33 | > 50 | ~1.2 | no residual uptake | 10.93 | ~2.5 |
